From PubChem BioAssay (NCI)
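Cells were grown in 96-well plates and exposed to each compound for 48 hours at five concentrations; endpoints were interpolated linearly between bracketing concentrations, or set to the highest concentration if not reached. GI50: concentration for 50% inhibition of growth. TGI: total growth inhibition.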

Key:
Experiment in all cases: inhibition of tumour cell growth, NCI panel, 48 h
OVCAR-4 ovarian = test system: OVCAR-4 ovarian
PC-3 prostate = test system: PC-3 prostate
EKVX NSCLC = test system: EKVX NSCLC
MOLT-4 leukemia = test system: MOLT-4 leukemia
OVCAR-3 ovarian = test system: OVCAR-3 ovarian
NCI-H23 lung = test system: NCI-H23 lung
786-0 renal = test system: 786-0 renal
TK-10 renal = test system: TK-10 renal
NCI-H522 lung = test system: NCI-H522 lung
HCT-116 colon = test system: HCT-116 colon
U251 CNS = test system: U251 CNS
SK-MEL-2 melanoma = test system: SK-MEL-2 melanoma
UACC-257 melanoma = test system: UACC-257 melanoma
IGROV1 ovarian = test system: IGROV1 ovarian
M14 melanoma = test system: M14 melanoma
SF-268 CNS = test system: SF-268 CNS
CAKI-1 renal = test system: CAKI-1 renal
OVCAR-5 ovarian = test system: OVCAR-5 ovarian
MDA-MB-435 = test system: MDA-MB-435
DU-145 prostate = test system: DU-145 prostate
HCT-15 colon = test system: HCT-15 colon
SN12C renal = test system: SN12C renal
MDA-MB-468 breast = test system: MDA-MB-468 breast
SNB-19 CNS = test system: SNB-19 CNS
SF-539 CNS = test system: SF-539 CNS
SK-MEL-5 melanoma = test system: SK-MEL-5 melanoma
UACC-62 melanoma = test system: UACC-62 melanoma
MCF7 breast = test system: MCF7 breast
HOP-62 NSCLC = test system: HOP-62 NSCLC
K-562 leukemia = test system: K-562 leukemia
OVCAR-8 ovarian = test system: OVCAR-8 ovarian
A549 NSCLC = test system: A549 NSCLC
HL-60(TB) leukemia = test system: HL-60(TB) leukemia
SR leukemia = test system: SR leukemia
SW-620 colon = test system: SW-620 colon
SF-295 CNS = test system: SF-295 CNS
MDA-MB-231 breast = test system: MDA-MB-231 breast
NCI/ADR-RES ovarian = test system: NCI/ADR-RES ovarian
SK-MEL-28 melanoma = test system: SK-MEL-28 melanoma
UO-31 renal = test system: UO-31 renal
MALME-3M melanoma = test system: MALME-3M melanoma
RPMI-8226 leukemia = test system: RPMI-8226 leukemia
KM12 colon = test system: KM12 colon
HT29 colon = test system: HT29 colon
CCRF-CEM leukemia = test system: CCRF-CEM leukemia
NCI-H460 lung = test system: NCI-H460 lung
HCC-2998 colon = test system: HCC-2998 colon
A498 renal = test system: A498 renal
SNB-75 CNS = test system: SNB-75 CNS
T-47D breast = test system: T-47D breast
NCI-H226 lung = test system: NCI-H226 lung
COLO 205 colon = test system: COLO 205 colon
HOP-92 NSCLC = test system: HOP-92 NSCLC
HS 578T breast = test system: HS 578T breast
BT-549 breast = test system: BT-549 breast
LOX IMVI melanoma = test system: LOX IMVI melanoma
ACHN renal = test system: ACHN renal
SK-OV-3 ovarian = test system: SK-OV-3 ovarian

COc1cc(/C=C/C(=O)c2ccccc2)ccc1Oc1nc(Nc2ccc(F)cc2)nc(N(C)C)n1 showed a GI50 (OVCAR-4 ovarian) of 5.85 µM, a TGI (OVCAR-4 ovarian) of 41.7 µM and a GI50 (PC-3 prostate) of 10 µM. For the same compound, the TGI (PC-3 prostate) was greater than 100 µM, the GI50 (EKVX NSCLC) was 4.73 µM and the TGI (EKVX NSCLC) was greater than 100 µM. It also gave a GI50 (MOLT-4 leukemia) of 2.56 µM, a TGI (MOLT-4 leukemia) greater than 100 µM and a GI50 (OVCAR-3 ovarian) of 11.8 µM. It also gave a TGI (OVCAR-3 ovarian) greater than 100 µM, a GI50 (NCI-H23 lung) of 12.6 µM and a TGI (NCI-H23 lung) of 51.4 µM. For the same compound, the GI50 (786-0 renal) was 20.5 µM, the TGI (786-0 renal) was 87 µM and the GI50 (TK-10 renal) was 18 µM. The TGI (TK-10 renal) was greater than 100 µM, the GI50 (NCI-H522 lung) was 5.15 µM and the TGI (NCI-H522 lung) was 59.2 µM. It also gave a GI50 (HCT-116 colon) of 3.21 µM, a TGI (HCT-116 colon) of 12.9 µM and a GI50 (U251 CNS) of 2.84 µM. It also gave a TGI (U251 CNS) of 13.4 µM, a GI50 (SK-MEL-2 melanoma) of 4.68 µM and a TGI (SK-MEL-2 melanoma) of 20.7 µM. The GI50 (UACC-257 melanoma) was 6.44 µM, the TGI (UACC-257 melanoma) was 77.2 µM and the GI50 (IGROV1 ovarian) was 18.7 µM. For the same compound, the TGI (IGROV1 ovarian) was greater than 100 µM, the GI50 (M14 melanoma) was 13 µM and the TGI (M14 melanoma) was 37.8 µM. The GI50 (SF-268 CNS) was 12.2 µM, the TGI (SF-268 CNS) was greater than 100 µM and the GI50 (CAKI-1 renal) was 5.72 µM. The TGI (CAKI-1 renal) was greater than 100 µM, the GI50 (OVCAR-5 ovarian) was 13.9 µM and the TGI (OVCAR-5 ovarian) was 48.3 µM. For the same compound, the GI50 (MDA-MB-435) was 7.39 µM, the TGI (MDA-MB-435) was 28.4 µM and the GI50 (DU-145 prostate) was 27.3 µM. The TGI (DU-145 prostate) was greater than 100 µM, the GI50 (HCT-15 colon) was 3.31 µM and the TGI (HCT-15 colon) was 12.9 µM. The GI50 (SN12C renal) was 7.32 µM, the TGI (SN12C renal) was 22.1 µM and the GI50 (MDA-MB-468 breast) was 3.21 µM. It also gave a TGI (MDA-MB-468 breast) of 19.9 µM, a GI50 (SNB-19 CNS) of 10.2 µM and a TGI (SNB-19 CNS) of 27.6 µM. For the same compound, the GI50 (SF-539 CNS) was 13.8 µM, the TGI (SF-539 CNS) was 26.7 µM and the GI50 (SK-MEL-5 melanoma) was 6.21 µM. It also gave a TGI (SK-MEL-5 melanoma) of 34.2 µM, a GI50 (UACC-62 melanoma) of 4.99 µM and a TGI (UACC-62 melanoma) of 24.2 µM. The GI50 (MCF7 breast) was 3.08 µM, the TGI (MCF7 breast) was 15 µM and the GI50 (HOP-62 NSCLC) was 26.6 µM. The TGI (HOP-62 NSCLC) was greater than 100 µM, the GI50 (K-562 leukemia) was 3.57 µM and the TGI (K-562 leukemia) was greater than 100 µM. It also gave a GI50 (OVCAR-8 ovarian) of 5.9 µM, a TGI (OVCAR-8 ovarian) of 26.5 µM and a GI50 (A549 NSCLC) of 11.7 µM. The TGI (A549 NSCLC) was greater than 100 µM, the GI50 (HL-60(TB) leukemia) was 8.38 µM and the TGI (HL-60(TB) leukemia) was 67.1 µM. For the same compound, the GI50 (SR leukemia) was 2.9 µM, the TGI (SR leukemia) was greater than 100 µM and the GI50 (SW-620 colon) was 1.81 µM. The TGI (SW-620 colon) was 3.97 µM, the GI50 (SF-295 CNS) was 6.89 µM and the TGI (SF-295 CNS) was 48.5 µM. For the same compound, the GI50 (MDA-MB-231 breast) was 6.92 µM, the TGI (MDA-MB-231 breast) was 21.9 µM and the GI50 (NCI/ADR-RES ovarian) was 7.04 µM. It also gave a TGI (NCI/ADR-RES ovarian) of 22.6 µM, a GI50 (SK-MEL-28 melanoma) of 12.2 µM and a TGI (SK-MEL-28 melanoma) of 32.1 µM. For the same compound, the GI50 (UO-31 renal) was 4.4 µM, the TGI (UO-31 renal) was greater than 100 µM and the GI50 (MALME-3M melanoma) was 15.9 µM. For the same compound, the TGI (MALME-3M melanoma) was 39.6 µM, the GI50 (RPMI-8226 leukemia) was 2.83 µM and the TGI (RPMI-8226 leukemia) was 33.9 µM. The GI50 (KM12 colon) was 14.9 µM, the TGI (KM12 colon) was greater than 100 µM and the GI50 (HT29 colon) was 4.36 µM. It also gave a TGI (HT29 colon) of 19 µM, a GI50 (CCRF-CEM leukemia) of 3.38 µM and a TGI (CCRF-CEM leukemia) greater than 100 µM. For the same compound, the GI50 (NCI-H460 lung) was 9.14 µM, the TGI (NCI-H460 lung) was 30 µM and the GI50 (HCC-2998 colon) was 12.9 µM. The TGI (HCC-2998 colon) was 76.5 µM, the GI50 (A498 renal) was 27 µM and the TGI (A498 renal) was greater than 100 µM. It also gave a GI50 (SNB-75 CNS) of 4.7 µM, a TGI (SNB-75 CNS) of 95.9 µM and a GI50 (T-47D breast) of 3.36 µM. For the same compound, the TGI (T-47D breast) was greater than 100 µM, the GI50 (NCI-H226 lung) was 4.94 µM and the TGI (NCI-H226 lung) was 21.5 µM. The GI50 (COLO 205 colon) was 15.1 µM, the TGI (COLO 205 colon) was greater than 100 µM and the GI50 (HOP-92 NSCLC) was 2.08 µM. It also gave a TGI (HOP-92 NSCLC) of 12.9 µM, a GI50 (HS 578T breast) of 5.44 µM and a TGI (HS 578T breast) of 56.4 µM. It also gave a GI50 (BT-549 breast) of 12 µM, a TGI (BT-549 breast) of 28.6 µM and a GI50 (LOX IMVI melanoma) of 1.6 µM. For the same compound, the TGI (LOX IMVI melanoma) was 3.15 µM, the GI50 (ACHN renal) was 8.29 µM and the TGI (ACHN renal) was 37.4 µM. For the same compound, the GI50 (SK-OV-3 ovarian) was 48.6 µM and the TGI (SK-OV-3 ovarian) was greater than 100 µM.
